According to patent US20260347370A1, “SALT TYPE AND CRYSTAL FORM OF THIENOPYRIMIDINONE DERIVATIVE” (CMS RESEARCH & DEVELOPMENT PTE. LTD., priority 2022, published 2026):
Values belong to the compound of their own block, whether it stands above or below them.

Experiments:
[1] = Solid stability testing of the crystal form B (influencing factors: high temperature, high humidity, light; accelerated 40 °C/75% RH; long-term 25 °C/60% RH); assay type: physicochemical
Excerpt: Influencing factor testing: unless otherwise specified, each sample was placed in an open weighing bottle, which was placed in the corresponding storage container to investigate the stability at the time points of 5 and 10 days. The photostability testing complied with the requirements of ICH Q1B: the illuminated sample was exposed to visible light and ultraviolet light; storage conditions: the sample was illuminated at 5000±500 lux (visible light) and 90 μw/cm^2 (UV) for 5 days and 10 days. The total illumination received by the sample after 10 days was not less than 1.2×10^6 Lux·h, and the near-ultraviolet energy was not less than 200 w·h/m^2. The illuminated sample was placed in a clean weighing bottle, and spread out into a single layer without being covered by anything. The weighing bottle was uncovered and placed in an illumination box for illumination. The control sample was packaged in the same way as the illuminated sample, but the weighing bottle was covered with aluminum film. Long-term and accelerated testing: each sample was placed in a double-layer LDPE bag, respectively, and each layer of the LDPE bag was sealed with a buckle. Then, the sample was placed in an aluminum foil bag, which was heat-sealed. The sample was placed for 1, 2 and 3 months in the accelerated testing, and placed for 3 months under the long-term condition. XRPD analysis was performed on all the stability samples to test the changes in the crystal forms.
25 mg of a sample was taken, weighed accurately, and placed in a 10 mL volumetric flask. 6 mL of acetonitrile was added and the sample was dissolved by ultrasound. The mixture was cooled to room temperature, and water was added to the scale marker. The mixture was shaken well, and the sample was dissolved to give a solution with a concentration of approximately 2.5 mg/mL. The liquid phase was used for sample injection analysis. The test results were compared with the initial test results on day 0.

[2] = Hygroscopicity study by dynamic vapor sorption (DVS); assay type: physicochemical; details: 25 °C/80% RH
Method: Instrument model: SMS DVS intrinsic plus dynamic vapor sorption instrument. Detailed DVS parameters are as follows: • Temperature: 25 °C; • Protective gas and flow rate: nitrogen, 200 mL/min; • dm/dt=0.002%/min; • RH (%) test gradient: 10% RH; • Minimum dm/dt balance time: 10 min; • Maximum balance time: 180 min; • Range of RH (%) test gradient: 0% to 95%.
The classification of hygroscopicity evaluation is as follows: • Absorbing enough water and forming a liquid: deliquescence; ΔW %≥15%: very hygroscopic; 15%>ΔW %≥2%: hygroscopic; 2%>ΔW %≥0.2%: slightly hygroscopic; ΔW %<0.2%: Not or almost not hygroscopic. ΔW % represents the weight increase of a test sample by moisture absorption at 25±1 °C and 80±2% RH.
The test was performed using SMS DVS intrinsic plus dynamic vapor sorption instrument.

[3] = Solid stability testing of the crystal form B (influencing factors: high temperature, high humidity, light; accelerated 40 °C/75% RH; long-term 25 °C/60% RH); assay type: physicochemical; remark: listed apart in the source
[4] = Pharmacokinetic evaluation in male CD-1 mice (IV 0.5 mg/kg, PO 2 mg/kg), plasma LC/MS/MS; assay type: in vivo
Method: Assay purpose: The pharmacokinetic properties of the compounds of the present disclosure were studied in mice.
Each assay compound was mixed with DMAC respectively, and vortexed for 2 minutes. The solution of the assay compound in DMAC was mixed and vortexed for 2 minutes to prepare a clear solution of 10 mg/mL. 0.0600 mL of 10 mg/mL solution was added to 0.300 mL of Solutol, and the mixture was vortexed for 2 minutes. Then 2.400 mL of normal saline was added, and the mixture was vortexed for 2 minutes to obtain a clear solution of 0.2 mg/mL, which was used for administration in PO group. 0.500 mL of the solution for administration in PO group was vortexed for 2 minutes, and 0.0500 mL of DMAC was added. The mixture was vortexed for 2 minutes, and then 0.0500 mL of solutol was added. The mixture was vortexed for 2 minutes, and finally 0.400 mL of normal saline was added. The mixture was vortexed for two minutes to give a clear solution of 0.1 mg/mL, which was filtered through a microporous membrane to give a solution for administration in injection (IV) group.
Four male CD-1 mice were divided into two groups. The animals in the first group were administered intravenously once at a dose of 0.5 mg/kg, wherein the vehicle was 10% DMAC/10% Solutol/80% normal saline, and the administration volume was 5 mL/kg. The animals in the second group were administered orally 2 mg/kg of the assay compound by oral gavage, wherein the oral vehicle was 10% DMAC/10% Solutol/80% normal saline, and the oral volume was 10 mL/kg. Whole blood was collected at 0.033 (IV injection only), 0.083, 0.25, 0.5, 1, 2, 4 and 12 hours post-dose. The whole blood was centrifuged at 3200 g at 2-8 °C for 10 min to obtain plasma. The concentration of the assay compound in plasma was determined by LC/MS/MS method, and the pharmacokinetic parameters were calculated by Phoenix WinNonlin software.
The parameters have the following meanings: IV: intravenous injection; PO: oral administration; C0: initial plasma concentration; Cmax: maximum drug concentration in the systemic circulation; Tmax: time required to reach Cmax; T1/2: half-life; Vdss: apparent volume of distribution; Cl: clearance rate; AUC0-last: area under the plasma drug concentration-time curve.

[5] = High humidity (25 °C, 92.5% relative humidity, uncovered), 10 days
[6] = High temperature (60 °C, uncovered), 10 days
[7] = Long term (25 °C, 60% relative humidity, uncovered), 3 months
[8] = Visible light + UV (ICH conditions), total illumination of visible light reaching 1200000 Lux·h, UV reaching 200 w·h/m^2
[9] = Accelerated (40 °C, 75% relative humidity, uncovered), 1 month
[10] = Accelerated (40 °C, 75% relative humidity, uncovered), 2 months
[11] = Accelerated (40 °C, 75% relative humidity, uncovered), 3 months
[12] = Light-shielding control group, placed with visible light + UV light, wrapped with tin foil

Purity (HPLC) ([1]; 0 day (initial)): 99.4% | Crystal form [1, 5]: form B | Purity (HPLC) [1, 5]: 99.4% | Crystal form [1, 6]: form B | Purity (HPLC) [1, 6]: 99.4% | Purity (HPLC) [1, 7]: 99.4% | Crystal form [1, 8]: form B | Purity (HPLC) [1, 8]: 99.4% | change of purity and crystalline form ([1]; all stability conditions (high temperature, high humidity, illumination, long-term and accelerated)): did not change significantly | hygroscopicity [2]: slightly hygroscopic (2%>ΔW %≥0.2%) | ΔW % ([2]; DVS): 0.535% | Crystal form ([3]; 0 day (initial)): form B | Crystal form [3, 9]: form B | Purity (HPLC) [3, 9]: 99.4% | Crystal form [3, 10]: form B | Purity (HPLC) [3, 10]: 99.4% | Crystal form [3, 11]: form B | Purity (HPLC) [3, 11]: 99.4% | Crystal form [3, 12]: form B | Purity (HPLC) [3, 12]: 99.4% | Crystal form [3, 7]: form B | chemical stability ([3]; conclusion in words, all stability conditions): good chemical stability
Structure (SMILES): O=C(O)c1scc2[nH]c(=O)n(-c3cc4c(cc3F)OCCCOc3ccc(F)c(F)c3CO4)c(=O)c12

AUC0-last ([4]; IV (0.5 mg/kg)): 48.307 µM·h | Cl (clearance rate) ([4]; IV (0.5 mg/kg)): 0.332 mL/min/kg | T1/2 ([4]; IV (0.5 mg/kg)): 5.66 h | Vdss (apparent volume of distribution) ([4]; IV (0.5 mg/kg)): 0.159 L/kg | C0 ([4]; IV (0.5 mg/kg), read-out: C0 (initial plasma concentration)): 13.5 µM | AUC0-last ([4]; PO (2 mg/kg)): 142.824 µM·h | Bioavailability ([4]; PO (2 mg/kg)): 95.3% | Cmax ([4]; PO (2 mg/kg)): 25.8 µM | T1/2 ([4]; PO (2 mg/kg)): 5.03 h | Tmax ([4]; PO (2 mg/kg)): 0.500 h
Structure (SMILES): O=C(O)c1scc2[nH]c(=O)n(-c3cc4c(cc3F)OCCCOc3ccc(F)c(F)c3CO4)c(=O)c12 [Compound of formula (I)]
